Data: PubChem BioAssay AID248 (DTP/NCI, 2004)
Values joined by “and” are separate entries in the source; they are usually repeats but may differ in a detail not shown here. Identical values can stand only once. Inconclusive results and toxic doses are left out.

System: L1210 leukemia ip in BDF1 mice, survival T/C
Assay: NCI In Vivo Anticancer Drug Screen. Data for tumor model L1210 Leukemia (intraperitoneal) in B6D2F1 (BDF1) mice
Conditions: endpoint: mean survival time, higher = longer survival
Outline: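 Read-out is survival time, reported as the treated-group measurement over the vehicle-control measurement.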

With CC(=O)OCC1OC(n2ncc(=O)[nH]c2=O)C(OC(C)=O)C1OC(C)=O (configuration not stated) the T/C (dose: 5.3 mg/kg/injection, schedule: Q01DX Z (oral), vehicle: carboxymethylcellulose (CMC)) was 122 % of control, the T/C (dose: 8.0 mg/kg/injection, schedule: Q01DX Z (oral), vehicle: carboxymethylcellulose (CMC)) was 119 % of control and the T/C (dose: 8.0 mg/kg/injection, schedule: Q03HX024 (ip), vehicle: other) was 104 % of control. The T/C (dose: 8.0 mg/kg/injection, schedule: Q03HX024 (oral), vehicle: other) was 117 % of control, the T/C (dose: 8.8 mg/kg/injection, schedule: Q01DX Z (ip), vehicle: carboxymethylcellulose (CMC)) was 114 % of control and the T/C (dose: 10.0 mg/kg/injection, schedule: Q01DX Z (im), vehicle: carboxymethylcellulose (CMC)) was 121 % of control. The T/C (dose: 11.66 mg/kg/injection, schedule: Q#B X Z (ip), vehicle: carboxymethylcellulose (CMC)) was 111 % of control, the T/C (dose: 13.0 mg/kg/injection, schedule: Q01DX Z (ip), vehicle: carboxymethylcellulose (CMC)) was 118 % of control and the T/C (dose: 15.0 mg/kg/injection, schedule: Q01DX Z (im), vehicle: carboxymethylcellulose (CMC)) was 122 % of control. The T/C (dose: 15.0 mg/kg/injection, schedule: Q01DX Z (sc), vehicle: carboxymethylcellulose (CMC)) was 116 % of control, the T/C (dose: 16.0 mg/kg/injection, schedule: Q03HX008 (ip), vehicle: other) was 103 % of control and the T/C (dose: 16.0 mg/kg/injection, schedule: Q03HX016 (ip), vehicle: other) was 105 % of control. For the same compound, the T/C (dose: 18.33 mg/kg/injection, schedule: Q#B X Z (ip), vehicle: carboxymethylcellulose (CMC)) was 113 % of control, the T/C (dose: 20.0 mg/kg/injection, schedule: Q01DX Z (ip), vehicle: carboxymethylcellulose (CMC)) was 120 % of control and the T/C (dose: 23.0 mg/kg/injection, schedule: Q01DX Z (im), vehicle: carboxymethylcellulose (CMC)) was 121 % of control. For the same compound, the T/C (dose: 26.66 mg/kg/injection, schedule: Q#B X Z (ip), vehicle: carboxymethylcellulose (CMC)) was 116 % of control, the T/C (dose: 31.0 mg/kg/injection, schedule: Q01DX Z (ip), vehicle: carboxymethylcellulose (CMC)) was 120 % of control and the T/C (dose: 32.0 mg/kg/injection, schedule: Q03HX008 (ip), vehicle: other) was 102 % of control. For the same compound, the T/C (dose: 32.0 mg/kg/injection, schedule: Q03HX016 (ip), vehicle: other) was 103 % of control, the T/C (dose: 32.0 mg/kg/injection, schedule: Q03HX024 (ip), vehicle: other) was 118 % of control and the T/C (dose: 32.0 mg/kg/injection, schedule: Q03HX024 (oral), vehicle: other) was 122 % of control. The T/C (dose: 61.66 mg/kg/injection, schedule: Q#B X Z (ip), vehicle: carboxymethylcellulose (CMC)) was 120 % of control, the T/C (dose: 62.0 mg/kg/injection, schedule: Q01DX Z (oral), vehicle: carboxymethylcellulose (CMC)) was 157 % of control and the T/C (dose: 64.0 mg/kg/injection, schedule: Q03HX008 (ip), vehicle: other) was 108 % of control. For the same compound, the T/C (dose: 64.0 mg/kg/injection, schedule: Q03HX016 (ip), vehicle: other) was 103 % of control, the T/C (dose: 64.0 mg/kg/injection, schedule: Q04DX003 (ip), vehicle: other) was 103 % of control and the T/C (dose: 64.0 mg/kg/injection, schedule: Q04DX003 (oral), vehicle: other) was 109 % of control. For the same compound, the T/C (dose: 85.0 mg/kg/injection, schedule: Q01DX Z (im), vehicle: carboxymethylcellulose (CMC)) was 122 % of control, the T/C (dose: 93.33 mg/kg/injection, schedule: Q#B X Z (ip), vehicle: carboxymethylcellulose (CMC)) was 124 % of control and 86 % of control and the T/C (dose: 125.0 mg/kg/injection, schedule: Q01DX001 (ip), vehicle: carboxymethylcellulose (CMC)) was 102 % of control and 107 % of control. For the same compound, the T/C (dose: 125.0 mg/kg/injection, schedule: Q01DX006 (iv), vehicle: carboxymethylcellulose (CMC)) was 118 % of control, the T/C (dose: 125.0 mg/kg/injection, schedule: Q03DX Z (ip), vehicle: carboxymethylcellulose (CMC)) was 121 % of control and the T/C (dose: 125.0 mg/kg/injection, schedule: Q07DX Z (ip), vehicle: carboxymethylcellulose (CMC)) was 110 % of control. The T/C (dose: 128.0 mg/kg/injection, schedule: Q01DX001 (ip), vehicle: other) was 105 % of control, the T/C (dose: 128.0 mg/kg/injection, schedule: Q03HX008 (ip), vehicle: other) was 109 % of control and the T/C (dose: 128.0 mg/kg/injection, schedule: Q03HX016 (ip), vehicle: other) was 119 % of control. For the same compound, the T/C (dose: 128.0 mg/kg/injection, schedule: Q04DX003 (ip), vehicle: other) was 110 % of control, the T/C (dose: 128.0 mg/kg/injection, schedule: Q04DX003 (oral), vehicle: other) was 101 % of control and the T/C (dose: 128.0 mg/kg/injection, schedule: Q08DX002 (ip), vehicle: other) was 101 % of control. The T/C (dose: 166.66 mg/kg/injection, schedule: Q#B X Z (ip), vehicle: carboxymethylcellulose (CMC)) was 157 % of control, the T/C (dose: 185.0 mg/kg/injection, schedule: Q01DX Z (sc), vehicle: carboxymethylcellulose (CMC)) was 121 % of control and the T/C (dose: 250.0 mg/kg/injection, schedule: Q01DX001 (ip), vehicle: carboxymethylcellulose (CMC)) was 100 % of control and 103 % of control. For the same compound, the T/C (dose: 250.0 mg/kg/injection, schedule: Q01DX Z (im), vehicle: carboxymethylcellulose (CMC)) was 161 % of control, the T/C (dose: 250.0 mg/kg/injection, schedule: Q03DX Z (ip), vehicle: carboxymethylcellulose (CMC)) was 122 % of control and the T/C (dose: 250.0 mg/kg/injection, schedule: Q07DX Z (ip), vehicle: carboxymethylcellulose (CMC)) was 115 % of control. The T/C (dose: 256.0 mg/kg/injection, schedule: Q01DX001 (ip), vehicle: other) was 97 % of control, the T/C (dose: 256.0 mg/kg/injection, schedule: Q04DX003 (ip), vehicle: other) was 106 % of control and the T/C (dose: 256.0 mg/kg/injection, schedule: Q04DX003 (oral), vehicle: other) was 120 % of control. The T/C (dose: 256.0 mg/kg/injection, schedule: Q08DX002 (ip), vehicle: other) was 96 % of control, the T/C (dose: 280.0 mg/kg/injection, schedule: Q01DX Z (sc), vehicle: carboxymethylcellulose (CMC)) was 151 % of control and the T/C (dose: 420.0 mg/kg/injection, schedule: Q01DX Z (sc), vehicle: carboxymethylcellulose (CMC)) was 108 % of control. For the same compound, the T/C (dose: 450.0 mg/kg/injection, schedule: Q01DX010 (ip), vehicle: saline) was 116 % of control, the T/C (dose: 500.0 mg/kg/injection, schedule: Q01DX001 (ip), vehicle: carboxymethylcellulose (CMC)) was 102 % of control and 113 % of control and the T/C (dose: 500.0 mg/kg/injection, schedule: Q01DX Z (im), vehicle: carboxymethylcellulose (CMC)) was 150 % of control. The T/C (dose: 500.0 mg/kg/injection, schedule: Q01DX Z (sc), vehicle: carboxymethylcellulose (CMC)) was 154 % of control, the T/C (dose: 500.0 mg/kg/injection, schedule: Q03DX Z (ip), vehicle: carboxymethylcellulose (CMC)) was 121 % of control and the T/C (dose: 500.0 mg/kg/injection, schedule: Q07DX Z (ip), vehicle: carboxymethylcellulose (CMC)) was 113 % of control. For the same compound, the T/C (dose: 512.0 mg/kg/injection, schedule: Q01DX001 (ip), vehicle: other) was 104 % of control, the T/C (dose: 512.0 mg/kg/injection, schedule: Q01DX009 (oral), vehicle: other) was 151 % of control and the T/C (dose: 512.0 mg/kg/injection, schedule: Q04DX003 (ip), vehicle: other) was 106 % of control. The T/C (dose: 512.0 mg/kg/injection, schedule: Q08DX002 (ip), vehicle: other) was 105 % of control, the T/C (dose: 675.0 mg/kg/injection, schedule: Q01DX010 (ip), vehicle: saline) was 93 % of control and the T/C (dose: 1000.0 mg/kg/injection, schedule: Q01DX001 (ip), vehicle: carboxymethylcellulose (CMC)) was 97 % of control and 122 % of control. For the same compound, the T/C (dose: 1000.0 mg/kg/injection, schedule: Q01DX Z (im), vehicle: carboxymethylcellulose (CMC)) was 158 % of control, the T/C (dose: 1000.0 mg/kg/injection, schedule: Q01DX Z (ip), vehicle: carboxymethylcellulose (CMC)) was 102 % of control and the T/C (dose: 1000.0 mg/kg/injection, schedule: Q01DX Z (oral), vehicle: carboxymethylcellulose (CMC)) was 86 % of control. The T/C (dose: 1000.0 mg/kg/injection, schedule: Q01DX Z (sc), vehicle: carboxymethylcellulose (CMC)) was 117 % of control, the T/C (dose: 1000.0 mg/kg/injection, schedule: Q07DX Z (ip), vehicle: carboxymethylcellulose (CMC)) was 113 % of control and the T/C (dose: 1014.0 mg/kg/injection, schedule: Q01DX010 (ip), vehicle: saline) was 100 % of control. For the same compound, the T/C (dose: 1024.0 mg/kg/injection, schedule: Q01DX001 (ip), vehicle: other) was 101 % of control and the T/C (dose: 1024.0 mg/kg/injection, schedule: Q08DX002 (ip), vehicle: other) was 106 % of control.
In the case of CCOC(=O)c1ccc(OC)nc1, the T/C (dose: 100.0 mg/kg/injection, schedule: Q01DX009 (ip), vehicle: saline) is reported as 104 % of control, the T/C (dose: 200.0 mg/kg/injection, schedule: Q01DX009 (ip), vehicle: saline) is reported as 102 % of control and the T/C (dose: 400.0 mg/kg/injection, schedule: Q01DX009 (ip), vehicle: saline) is reported as 98 % of control.
In the case of Cc1cc(C)c(NS(=O)(=O)c2ccccc2)c([N+](=O)[O-])c1, the T/C (dose: 100.0 mg/kg/injection, schedule: Q04DX002 (ip), vehicle: saline with Tween-80) is reported as 101 % of control, the T/C (dose: 200.0 mg/kg/injection, schedule: Q04DX002 (ip), vehicle: saline with Tween-80) is reported as 104 % of control and the T/C (dose: 400.0 mg/kg/injection, schedule: Q04DX002 (ip), vehicle: saline with Tween-80) is reported as 104 % of control.
